Assay results: US20090170900A1, “DOSING REGIMEN FOR WEIGHT LOSS” (UTI LIMITED PARTNERSHIP, priority 2005, published 2009)
Where two headings read alike, the source gives them in different places.

What was measured:
[1] = Weight gain or loss after a single dose of 1.25 or 2.5 mg/kg (Example 2); type: in vivo, rat; conditions: for weight gain or loss: over 10 days
Method: (§1) Food intake and weight measurements were taken daily. […] Animals were assigned into vehicle, 1.25 or 2.5 mg/kg conditions via a counterbalance design.

[2] = Daily food intake after a single dose of 1.25 or 2.5 mg/kg (Example 2); type: in vivo, rat
Method: as §1

[3] = Body weight change with administration every 5 days (Example 3); conditions: 5 mg/kg every 5 days, p<0.05
Method: (§3) Food was available for 17 h each day starting at 16:00 h. Food and water were presented in inverted glass bottles that were attached to the outside of the cage in order to minimize spillage. […] Food intake and body weight measurements were recorded daily.

[4] = cited from earlier work
[5] = Food intake after a single intraperitoneal injection in prefed, moderately obese male Lewis rats (Example 1); conditions: for cumulative food intake: AM-251 5 mg/kg i.p., Ensure Plus
Method: Vanilla-flavoured Ensure Plus (Ross Laboratories, Saint-Laurent, Quebec, Canada) was used as food on account of its palatability, and to reduce the risk of spillage. […] Food and water were presented in inverted glass bottles that attached to the outside of the cage. Animals were habituated to handling and testing procedures 3 weeks prior to testing on liquid diet.
The initial food presented between 1600 and 1700 h (prefeed) was designed to produce partial satiety as previously described in C.
Food bottles were put back on at 1800 h. Food intake measurements were taken daily as well as at 1900, 2000, and 2100 h.

[6] = Body weight gain with daily or twice-weekly intragastric injection (Example 4); type: in vivo, rat; conditions: low doses by the intragastric route, 28 days
Source text: (§2) Each of the rats was assigned to one of five groups. […] These groups were compared to the group with daily injection of vehicle (n=8).

[7] = Daily food intake with administration every 5 days (Example 3); conditions: 5 mg/kg every 5 days
Method: as §3

CB1 = CB1 (Homo sapiens, UniProt P21554); conditions: cited from earlier work
[8] = determined from behavioral tests; cited from earlier work
[9] = animal model of temporal lobe epilepsy; cited from earlier work
[10] = mice; cited from earlier work
[11] = Two-flavored conditioned aversion test (Example 4); type: in vivo, rat; conditions: for short-term percentage preference for the primary flavor associated with drug delivery: 15 min; for percentage daily preference for the flavor associated with drug delivery: 17 hr
Source text: Another objective was to determine whether the animals were responding negatively to the drug as determined by the use of a two-flavored conditioned aversion test in which the drug was repeatedly paired with one flavor of liquid diet while the vehicle injection was paired with the other flavor. There were ten training trials before the test procedure was done so the rats had sufficient time to make associations between flavors and internal consequences. This test procedure involved giving the rats two bottles, containing the liquid diets flavored with chocolate and strawberry, and determining the individual rat's preference for one or the other of the flavors. A conditioned aversion was established if the rat chose against the flavor associated with the drug injections.
as §2
This conditioning procedure was done for 10 exposures before the actual conditioned aversion test was done on day 33. This aversion test was done by allowing each rat exposure for 17 hrs to two bottles, one containing chocolate-flavored and the other containing strawberry-flavored liquid diet. No drugs or vehicles were injected on this day. […] Moreover, the rats were forced to taste both flavors for three or four licks before the diets were made freely available to them so the rats were fully aware that two flavors were present. […] The 17-hour tests allowed repeated association between the internal consequences of the drug and the taste of the drug associated primary flavor.

[12] = cited from earlier work; remark: listed apart in the source
[13] = 5 and 20 mg doses; human trials; cited from earlier work
[14] = rats injected daily (intragastric)

Chain of CB1 (P21554 whole entry, species assumed): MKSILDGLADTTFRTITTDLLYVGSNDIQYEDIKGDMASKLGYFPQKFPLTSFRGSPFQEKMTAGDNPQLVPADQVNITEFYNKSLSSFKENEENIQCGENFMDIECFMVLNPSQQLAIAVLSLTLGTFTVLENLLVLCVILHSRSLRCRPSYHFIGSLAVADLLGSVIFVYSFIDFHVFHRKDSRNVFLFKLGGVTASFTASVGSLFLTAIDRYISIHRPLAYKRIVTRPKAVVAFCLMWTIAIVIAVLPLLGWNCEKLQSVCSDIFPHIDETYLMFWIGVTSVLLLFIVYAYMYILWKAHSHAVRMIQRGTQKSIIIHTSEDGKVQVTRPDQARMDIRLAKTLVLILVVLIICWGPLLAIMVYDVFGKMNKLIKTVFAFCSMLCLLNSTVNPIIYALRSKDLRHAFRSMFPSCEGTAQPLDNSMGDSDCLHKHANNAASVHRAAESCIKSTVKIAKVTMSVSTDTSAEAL

Question: Which “weight gain or loss” value ([1]; 1.25 mg/kg single dose) does the source give for `Cc1c(C(=O)NN2CCCCC2)nn(-c2ccc(Cl)cc2Cl)c1-c1ccc(I)cc1` [AM-251, N-(piperidin-1-yl)-5-(4-iodophenyl)-1-(2,4-dichlorophenyl)-4-methyl-1H-pyrazole-3-carboxamide] here?
Answer: The value was 2.5 ± 2.0 g.

Question: And the “weight gain or loss” value ([1]; 2.5 mg/kg single dose)?
Answer: The value was -5.1 ± 2.1 g.

Question: And the “duration of weight loss compared with duration of reduced food intake” value ([1]; lowest dose, 1.25 mg/kg)?
Answer: Its value is “the duration of weight loss exceeded the duration of reduced food intake”.

Question: And the “reductions in food intake, dose relation” value ([2]; 1.25 mg/kg or 2.5 mg/kg single dose)?
Answer: Its value is “dose dependent”.

Question: And the “duration of significant reductions in food intake after the day of administration” value ([2]; 2.5 mg/kg single dose, significant starting the day of administration, p<0.001)?
Answer: The value was 4 days.

Question: What about the “period of significant differences in weight change vs vehicle” value ([3]; Newman-Keuls multiple comparison test) of the same compound?
Answer: The value was “day 1 to day 24”.

Question: And the “period of significant reductions in weight gain” value ([3]; unpaired t-test, last administration on day 11)?
Answer: Its value is “day 1 until day 27”.

Question: What about the “time of repeated daily administration after which changes in food intake were non-significant” value ([4]; 3 mg/kg daily, mouse) of the same compound?
Answer: The value was 8 days.

Question: And the “effect of stopping daily doses” value ([4]; approximately 10 mg/kg daily)?
Answer: Its value is “significant rebound hyperphagia and a rapid return in body weight”.

Question: What about the daily food intake ([5]; 5 mg/kg i.p., day of injection) of the same compound?
Answer: The daily food intake was 36.7 ± 3.3 g.

Question: What about the daily food intake ([5]; 5 mg/kg i.p., last day of significant reduction (day before the next drugs were given)) of the same compound?
Answer: Its daily food intake is 47.0 ± 2.5 g.

Question: And the “duration of significant reduction in daily food intake” value ([5]; 5 mg/kg i.p., starting on the day of injection)?
Answer: Its value is 6 days.

Question: What about the cumulative food intake ([5]; 1 h of testing) of the same compound?
Answer: The cumulative food intake was “no intake”.

Question: What about the cumulative food intake ([5]; 2 h of testing) of the same compound?
Answer: Its cumulative food intake is 1.3 ± 0.8 g.

Question: What about the cumulative food intake ([5]; 3 h of testing) of the same compound?
Answer: Its cumulative food intake is 3.3 ± 1.4 g.

Question: And the “effect on body weight gain” value [6]?
Answer: Its value is “significant slowing in weight gain”.

Question: What about the “days on which food intake was significantly reduced” value [7] of the same compound?
Answer: Its value is “days 1-4, and days 6-15”.

Question: What about the “time that reductions in food intake continued after the last treatment” value [7] of the same compound?
Answer: The value was “five”.

Question: And the “duration of significant reductions in food intake after the first dose” value ([7]; vs vehicle, p<0.05)?
Answer: Its value is 4 days.

Question: With `CN=C(NS(=O)(=O)c1ccc(Cl)cc1)N1C[C@H](c2ccccc2)C(c2ccc(Cl)cc2)=N1` [SLV-319] as the compound, how does the “CB1 antagonist activity and selectivity” value (CB1) read?
Answer: The value was “potent, CB1 selective antagonists”.

Question: Which “CB1 antagonist activity and selectivity” value (CB1) does the source give for `Cc1c(C(=O)NN2CCOCC2)nn(-c2ccc(Cl)cc2Cl)c1-c1ccc(I)cc1` [AM 281, N-(Morpholin-1-yl)-1-(2,4-dichlorophenyl)-5-(4-iodophenyl)-4-methyl-1H-pyrazole-3-carboxamide] here?
Answer: The value was “potent, CB1 selective antagonists”.

Question: With `Cc1c(C(=O)NN2CCCCC2)nn(-c2ccc(Cl)cc2Cl)c1-c1ccc(Cl)cc1` [rimonabant, N-(piperidin-1-yl)-5-(4-chlorophenyl)-1-(2,4-dichlorophenyl)-4-methyl-1H-pyrazole-3-carboxamide] as the compound, how does the predicted half-life [8] read?
Answer: Its predicted half-life is 22 h.

Question: And the “frequency of protracted seizures” value [9]?
Answer: Its value is “significantly higher frequency of protracted seizures”.

Question: And the “damage in response to an inflammatory stimulus vs vehicle-treated controls” value [10]?
Answer: The value was “significantly more damage”.

Question: What about the “short-term percentage preference for the primary flavor associated with drug delivery” value [11, 14] of the same compound?
Answer: Its value is 48%.

Question: And the “short-term percentage preference for the primary flavor associated with drug delivery” value ([11]; rats injected twice-weekly (intragastric))?
Answer: Its value is 44%.

Question: What about the “percentage daily preference for the flavor associated with drug delivery” value ([11]; rats injected biweekly (intragastric)) of the same compound?
Answer: The value was 50%.

Question: And the “percentage daily preference for the flavor associated with drug delivery” value [11, 14]?
Answer: Its value is 67%.

Question: And the “effect of stopping daily doses” value ([12]; approximately 10 mg/kg daily)?
Answer: The value was “significant rebound hyperphagia and a rapid return in body weight”.

Question: And the “time of treatment after which the anorectic effect waned” value ([12]; continued treatment, rats)?
Answer: Its value is 5 days.

Question: And the “most common side effects” value [13]?
Answer: The value was “nausea, dizziness, arthralgia and diarrhea”.

Question: What about the “effect on body weight gain” value [6] of the same compound?
Answer: The value was “significant slowing in weight gain”.
